Data reported in patent publication US20110195924A1, “Methods of Inhibiting the Interaction Between S100P and the Receptor for Advanced Glycation End-Products” (priority 2008, published 2011).

Molecular target: T1, S100P and RAGE (Homo sapiens, UniProt P25815)
T1 construct: endogenous in cells; host or cells: BxPC-3 cell lysate
T1 sequence (P25815 1-95): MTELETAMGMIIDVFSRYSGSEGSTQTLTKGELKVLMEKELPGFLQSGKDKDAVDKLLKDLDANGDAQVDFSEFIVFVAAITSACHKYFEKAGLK
Experiment: Co-immunoprecipitation of S100P and RAGE from BxPC-3 cell lysates
Type: binding
Details: cromolyn 100 μM
Procedure: Receptor for advanced glycation end products (RAGE) was identified in the immunoprecipitates by immunoblotting with a goat polyclonal anti-RAGE antibody and anti-S100P as an internal control. In the lower panel, one representative blot and densitometric analysis (means and 95% confidence intervals [CIs]) of three independent experiments is shown. *P<0.001, versus IP α-S100P without cromolyn.
For co-immunoprecipitation experiments, BxPC-3 cell lysates were incubated in the absence or presence of cromolyn (100 μM) at 4° C. overnight. S100P was immunoprecipitated using a mouse monoclonal anti-S100P antibody (Transduction Laboratories, San Diego, Calif.) for 6 hours at 4° C. and IgG-immobilized beads (Pierce Biotechnology, Inc. Rockford, Ill.). Antibody-associated proteins were electrophoresed on 10% polyacrylamide gels and electrophoretically transferred to nitrocellulose membranes. Membranes were blocked in PBS/5% milk overnight at 4° C. RAGE was detected using a goat polyclonal anti-RAGE antibody (1:200, Santa Cruz, Santa Cruz, Calif.), and S100P was detected using a goat polyclonal anti-S100P antibody (1:50, R & D systems, Minneapolis, Minn.) by immunoblotting as described in Arumugam, et al., S100P stimulates cell proliferation and survival via receptor for activated glycation end products (RAGE); J. Biol. Chem. 2004 Feb. 13; 279(7):5059-65. Briefly, membranes were incubated in primary antibody for 1 hour at room temperature followed by incubation with horseradish peroxidase-labeled secondary antibody for 30 minutes at room temperature. After a thorough wash in TBS-T buffer (1M Tris-HCL pH 8.3, 3M NaCl, 0.1% Tween-20), antibody-protein complexes were detected by using a chemiluminescent substrate (GE Healthcare Bio-Sciences Corp., Piscataway, N.J.). The intensity of the band was estimated (as density units) using densitometry (GS-250 Molecular Imaging System, Bio-Rad Laboratories, Richmond, Calif.). The experiment was repeated three times. […]

O=C(O)c1cc(=O)c2c(OCC(O)COc3cccc4oc(C(=O)O)cc(=O)c34)cccc2o1 [cromolyn, disodium 1,3-bis[(2′-carboxylatochromon-5′-yl)oxy]-2-hydroxypropane]
co-immunoprecipitation of S100P and RAGE, difference versus control: 25640 density units
total amount of S100P immunoprecipitated: no effect
co-immunoprecipitation of S100P and RAGE, mean (control mean 34040): 8410 density units
